# Target: central benzodiazepine receptors (specific benzodiazepine receptors in the cerebral cortex)
# Assay: Inhibition of the specific binding of tritiated diazepam at the specific benzodiazepine receptors in the cerebral cortex (affinity to central benzodiazepine receptors)
# Settings: read-out: Affinity to benzodiazepine receptors IC 50
# Source text: The affinity of compounds of formula I to the central benzodiazepine receptors has been determined according to the method described in Life Science 20, 2101-2110 (1977) and Science 198, 849-851 (1977). According to this method, the inhibition of the binding of tritiated diazepam at the specific benzodiazepine receptors in the cerebral cortex by the respective test substances is ascertained. The IC50 ("50% inhibiting concentration") is that concentration of the respective test substance which brings about a 50 percent inhibition of the specific binding of the tritiated diazepam at the specific benzodiazepine receptors in the cerebral cortex.
row,SMILES,IC50
1,"C/C(C#Cc1ncn2c1CN(C)C(=O)c1c(Cl)cccc1-2)=C\CO [F, 7-chloro-4,5-dihydro-3-[(E)-5-hydroxy-3-methyl-3-penten-1-ynyl]-5-methyl-6H-imidazo[1,5-a][1,4]-benzodiazepin-6-one]",2.2 nM
2,"C=CC(C)(O)C#Cc1ncn2c1CN(C)C(=O)c1c(Cl)cccc1-2 (stereo not drawn) [E, 7-chloro-4,5-dihydro-3-(3-hydroxy-3-methyl-4-penten-1-ynyl)-5-methyl-6H-imidazo[1,5-a][1,4]benzodiazepin-6-one]",3.7 nM
3,"CN1Cc2c(C#CC(C)(C)OCC3CC3)ncn2-c2cccc(Cl)c2C1=O [C, 7-chloro-3-[3-(cyclopropylmethoxy)-3-methyl-1-butynyl]-4,5-dihydro-5-methyl-6H-imidazo[1,5-a][1,4]benzodiazepin-6-one]",5 nM
4,"CC(=O)OCC#Cc1ncn2c1CN(C)C(=O)c1c(Cl)cccc1-2 [B, 3-(7-chloro-5,6-dihydro-5-methyl-6-oxo-4H-imidazo[1,5-a][1,4]benzodiazepin-3-yl)-2-propynyl acetate]",2.6 nM
5,"CN1Cc2c(C#CCOCC3CC3)ncn2-c2cccc(Cl)c2C1=O [A, 7-Chloro-3-[3-(cyclopropylmethoxy)-1-propynyl]-4,5-dihydro-5-methyl-6H-imidazo[1,5-a][1,4]benzodiazepin-6-one]",1.4 nM
6,"C/C(C#Cc1ncn2c1CN(C)C(=O)c1c(Cl)cccc1-2)=C/CO [D, 7-chloro-4,5-dihydro-3-[(Z)-5-hydroxy-3-methyl-3-penten-1-ynyl]-5-methyl-6H-imidazo[1,5-a][1,4]-benzodiazepin-6-one]",1.4 nM

# — US5021411A, “Imidazodiazepine derivatives” (Hoffmann-La Roche Inc., priority 1988, dated 1991)
